The source made the active and inactive calls.
How the values were obtained:
Beta-lactamase [1] = target: Beta-lactamase (Salmonella choleraesuis (strain SC-B67), UniProt Q5J463); experiment: Epi-absorbance-based counterscreen for selective VIM-2 inhibitors: dose response biochemical high throughput screening assay to identify inhibitors of TEM-1 serine-beta-lactamase.
Beta-lactamase [2] = target: T1, Beta-lactamase (Pseudomonas aeruginosa, UniProt Q79MP6); experiment: inhibition of IMP-1 beta-lactamase activity – biochemical, epi-absorbance, selectivity assay for VIM-2 inhibitor project, dose response (AID 1920)
Beta-lactamase [3] = target: T1, Beta-lactamase; experiment: […] counterscreen for selective VIM-2 inhibitors: dose response biochemical high throughput screening assay to identify inhibitors of IMP-1 metallo-beta-lactamase.
[4] = target: Fructose-bisphosphate aldolase (Mycobacterium tuberculosis, UniProt P9WQA3); experiment: Fluorescence-based biochemical high throughput dose response assay for inhibitors of the fructose-bisphosphate aldolase (FBA) of M. tuberculosis.; format: functional
Aminopeptidase N = target: T2, Aminopeptidase N (Plasmodium falciparum FcB1/Columbia, UniProt O96935); experiment: malaria alanyl aminopeptidase activity blockers – biochemical, fluorogenic H-Leu-NHMec substrate, 1536-well (AID 1445); design: species or system Plasmodium falciparum 3D7, 3D7
T2 sequence (O96935 whole entry): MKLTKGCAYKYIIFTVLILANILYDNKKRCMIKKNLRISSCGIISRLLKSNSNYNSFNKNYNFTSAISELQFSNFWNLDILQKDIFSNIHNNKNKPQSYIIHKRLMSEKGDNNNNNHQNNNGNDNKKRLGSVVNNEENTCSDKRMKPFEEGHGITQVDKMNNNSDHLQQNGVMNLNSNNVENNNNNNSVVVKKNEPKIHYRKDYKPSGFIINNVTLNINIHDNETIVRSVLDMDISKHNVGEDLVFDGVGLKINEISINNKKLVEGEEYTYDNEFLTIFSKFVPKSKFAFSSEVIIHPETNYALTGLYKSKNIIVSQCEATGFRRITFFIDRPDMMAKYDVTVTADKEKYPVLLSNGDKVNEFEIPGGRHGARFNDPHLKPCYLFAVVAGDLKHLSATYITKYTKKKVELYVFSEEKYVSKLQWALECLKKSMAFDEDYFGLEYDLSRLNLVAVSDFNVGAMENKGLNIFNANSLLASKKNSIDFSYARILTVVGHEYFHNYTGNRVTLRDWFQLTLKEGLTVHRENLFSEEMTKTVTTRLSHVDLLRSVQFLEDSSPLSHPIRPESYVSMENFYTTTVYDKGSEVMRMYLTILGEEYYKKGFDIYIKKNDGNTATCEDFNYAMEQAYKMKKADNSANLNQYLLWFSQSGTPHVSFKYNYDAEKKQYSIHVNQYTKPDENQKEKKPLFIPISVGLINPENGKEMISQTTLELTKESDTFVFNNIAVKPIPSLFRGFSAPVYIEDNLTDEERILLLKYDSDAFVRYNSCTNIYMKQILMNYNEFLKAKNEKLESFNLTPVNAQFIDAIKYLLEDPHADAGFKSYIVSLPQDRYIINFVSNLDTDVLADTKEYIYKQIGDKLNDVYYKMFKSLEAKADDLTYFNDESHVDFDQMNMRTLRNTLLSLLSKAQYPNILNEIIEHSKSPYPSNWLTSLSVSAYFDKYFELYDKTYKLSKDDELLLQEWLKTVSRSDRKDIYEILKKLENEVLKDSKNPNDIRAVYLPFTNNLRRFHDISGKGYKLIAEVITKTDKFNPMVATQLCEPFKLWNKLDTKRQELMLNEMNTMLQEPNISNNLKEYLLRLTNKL

[5] = activation of miR-122 Renilla sensor silencing – cell-based, Huh7 psiCHECK-miR122, Renilla luciferase, cherry-picked, dose response (AID 651956); format: functional;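 also: huh7 hepatoma cells stably carrying a psiCHECK-2 miR-122 sensor plasmid; renilla luciferase signal reporting endogenous miR-122 activity after 48 h compound exposure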
[6] = general mammalian cell viability loss – inhibitor set, cherry-pick, set 2, cytotoxicity control for miR-122 modulator project, dose response (AID 720697); format: functional, cell-based
[7] = target: Tyrosine-protein phosphatase non-receptor type 11 (Homo sapiens, UniProt Q06124); experiment: PTPN11 enzyme inhibitors – biochemical, selectivity assay for STEP inhibitor project, dose response (AID 602367); format: functional; conditions: read-out: IC50_Mean
[8] = target: Tyrosine-protein phosphatase non-receptor type 5 (Homo sapiens, UniProt P54829); experiment: PTPN5 enzyme inhibition – biochemical, fluorescence intensity, uHTS hits, confirmation (AID 602372); format: functional; conditions: read-out: IC50_Mean
[9] = target: Dual specificity protein phosphatase 3 (Homo sapiens, UniProt P51452); experiment: VHR phosphatase inhibition, dose response, selectivity assay for STEP inhibitor project, biochemical (AID 602374); format: functional; conditions: read-out: IC50_Mean
[10] = target: T3, Tyrosine-protein phosphatase non-receptor type 22 (Homo sapiens, UniProt Q9Y2R2); experiment: lymphoid phosphatase LYP inhibitors – biochemical, selectivity assay for STEP inhibitor project, dose response (AID 624241); format: functional
T3 sequence (Q9Y2R2 whole entry): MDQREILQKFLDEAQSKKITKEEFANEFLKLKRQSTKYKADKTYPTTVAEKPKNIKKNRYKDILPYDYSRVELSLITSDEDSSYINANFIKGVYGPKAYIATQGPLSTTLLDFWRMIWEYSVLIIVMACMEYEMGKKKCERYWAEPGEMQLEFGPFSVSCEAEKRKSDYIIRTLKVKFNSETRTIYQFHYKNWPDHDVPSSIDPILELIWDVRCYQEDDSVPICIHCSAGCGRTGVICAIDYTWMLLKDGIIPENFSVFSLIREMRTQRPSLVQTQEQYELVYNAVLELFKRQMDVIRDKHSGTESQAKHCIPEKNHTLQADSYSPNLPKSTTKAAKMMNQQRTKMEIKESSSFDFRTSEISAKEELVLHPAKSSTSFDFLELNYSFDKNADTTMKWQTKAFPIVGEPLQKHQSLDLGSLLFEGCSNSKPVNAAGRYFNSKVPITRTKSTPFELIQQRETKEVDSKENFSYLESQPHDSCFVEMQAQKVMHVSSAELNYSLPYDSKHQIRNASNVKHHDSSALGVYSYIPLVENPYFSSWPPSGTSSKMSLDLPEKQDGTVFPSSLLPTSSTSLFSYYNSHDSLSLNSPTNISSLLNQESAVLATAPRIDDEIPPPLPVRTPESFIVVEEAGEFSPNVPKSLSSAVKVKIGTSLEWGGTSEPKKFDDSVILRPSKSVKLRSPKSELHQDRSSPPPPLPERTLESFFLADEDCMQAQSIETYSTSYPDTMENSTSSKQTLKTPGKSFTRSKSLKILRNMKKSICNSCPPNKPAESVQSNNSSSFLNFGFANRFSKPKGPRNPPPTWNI

Vero = experiment: viability loss in Vero cells – cell-based, plate reader, cherry-pick samples, cytotoxicity control, dose response (AID 687020); format: functional; conditions: Chlorocebus sabaeus
[11] = HEK-293T cell viability reduction – luminescence, B-cell screen hits, cytotoxicity control for BCR NF-kB inhibitor project, dose response (AID 489021); format: functional, cell-based;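 also: HEK-293T cells carrying an NF-kB luciferase reporter; cells exposed to compound for about 14 hours before viability readout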
INS1 = experiment: INS-1E survival protection against cytokine death – cell-based, luminescence, retest, dose response (AID 449756); format: functional; conditions: Rattus norvegicus;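 also: cell death triggered by IL-1 beta plus TNF-alpha plus IFN-gamma mixture; protective hits raise ATP signal compared with cytokine alone wells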
[12] = blockers of HIV-1 envelope-mediated cell-cell fusion – cherry-pick, dose response (AID 652057); format: functional, cell-based
[13] = viability loss in CEM21 cells – cell-based, CellTiter-Glo luminescence, cherry-picked, cytotoxicity control for viral fusion inhibitor project, dose response (AID 652042); format: functional;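 also: potency for signal decrease meaning cytotoxicity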
[14] = blockers of HIV-1 ZM109 envelope-driven cell-cell fusion – HeLa effector, CEM target cells, luciferase, cherry-pick, dose response (AID 652058); format: functional, cell-based;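 also: luciferase signal from HIV-1 Env mediated cell-cell fusion of effector and target cells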
[15] = off-target signal loss in HeLa-CEM21 co-culture – HeLa F-luc CTL cells, cherry-picked, counter-screen for HIV-1 Env fusion inhibitor project, dose response (AID 652040); format: functional, cell-based;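 also: potency for signal decrease marking cytotoxic or nonspecific inhibition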
[16] = HIV-1 AD8 envelope cell-cell fusion blockers – cherry-pick, dose response (AID 652062); format: functional, cell-based;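 also: luciferase signal from cell-cell fusion driven by HIV-1 clade B AD8 Env; potency is for inhibitors of fusion seen as a drop in luminescence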
[17] = A549 cell cytotoxicity, dose response, cytotoxicity control, plate reader, cherry-pick, antagonist series (AID 743412); format: functional, cell-based
[18] = toxicity toward HepG2 liver cells – cell-based, plate reader, cherry-pick, antagonist series, cytotoxicity control, dose response (AID 743416); format: functional
[19] = blockers of bursicon-stimulated LGR2 cAMP reporter – cell-based, HEK293, CRE-luciferase reporter, cherry pick, set 2, dose response (AID 743343); format: functional;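 also: transfected cells were stimulated with diluted bursicon conditioned medium after compound addition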
[20] = blockade of melanocortin 4 receptor signaling – cell-based, plate reader, cherry pick, counter-screen for LGR2 antagonist project, dose response (AID 743444); format: functional;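 also: transfected HEK 293 cells stimulated with alpha-MSH peptide; potency of inhibitors of the alpha-MSH evoked signal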
[21] = viability loss in HEK293 cells – cell-based, plate reader, cherry-picked samples, cytotoxicity control, dose response (AID 743446); format: functional
[22] = target: Glucose-6-phosphate 1-dehydrogenase (Homo sapiens, UniProt P11413); experiment: inhibition of Homo sapiens G6PD, dose series – biochemical, fluorescence, selectivity assay for P. falciparum G6PD inhibitor project, dose response (AID 504792); format: functional
[23] = viability loss in HeLa cells – cytotoxicity control for MgcRacGAP inhibitor project, dose response (AID 624300); format: functional
A549 = experiment: viability loss in A549 cells – cell-based, plate reader, cherry-pick samples, cytotoxicity control, dose response (AID 687028); format: functional; conditions: Homo sapiens
[24] = target: SWI/SNF-related matrix-associated actin-dependent regulator of chromatin subfamily A member 2 (Homo sapiens, UniProt P51531); experiment: Luminescence-based cell-based high throughput dose response assay to identify activators of the function of SWI/SNF related, matrix associated, actin dependent regulator of chromatin, subfamily a, member 2 (SMARCA2, BRM).; format: functional
[25] = Counterscreen for activators of the function of SWI/SNF related, matrix associated, actin dependent regulator of chromatin, subfamily a, member 2 (SMARCA2, BRM): Luminescence-based cell-based high throughput dose response assay to identify non-selective compounds using the VP16 reporter assay.; format: functional
Paired box protein Pax-8 = Paired box protein Pax-8 (Homo sapiens, UniProt Q06710); experiment: PAX8 transcriptional activity inhibition in RMG-I – RMG-I cells, luciferase, cherry-pick, dose response (AID 687027); format: functional, cell-based;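 also: luciferase reporter driven by Pax8 target thyroperoxidase promoter measured by SteadyGlo luminescence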
[26] = TNFa-induced NF-kB reporter signal decrease – HEK293 LMP1 reporter cells, dry powder, set 2, selectivity assay for EBV LMP1 NF-kB inhibitor project, dose response (AID 624369); format: functional
[27] = inhibitors of EBV LMP1 NF-kappaB signaling – cell-based, luciferase reporter, luminescence, dry powder, set 2, dose response (AID 624376); format: functional
[28] = LMP1-induced NF-kB luciferase signal inhibition – cell-based, EBV LMP1, dry powder, set 2, dose response (AID 624361); format: functional
[29] = cytotoxicity in HEK293 background cells – cell-based, dry powder, set 2, counter-screen for EBV LMP1 inhibitor project, dose response (AID 624374); format: functional
[30] = target: Potassium channel subfamily K member 9 (Homo sapiens, UniProt Q9NPC2); experiment: KCNK9 flux blockade, concentration-response – cell-based, FluxOR thallium flux, selectivity assay for TASK1 inhibitor project, SAR follow-up (AID 652211); format: functional;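 also: potency is for inhibitors of the channel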
Potassium channel subfamily K member 9, sequence (Q9NPC2 whole entry): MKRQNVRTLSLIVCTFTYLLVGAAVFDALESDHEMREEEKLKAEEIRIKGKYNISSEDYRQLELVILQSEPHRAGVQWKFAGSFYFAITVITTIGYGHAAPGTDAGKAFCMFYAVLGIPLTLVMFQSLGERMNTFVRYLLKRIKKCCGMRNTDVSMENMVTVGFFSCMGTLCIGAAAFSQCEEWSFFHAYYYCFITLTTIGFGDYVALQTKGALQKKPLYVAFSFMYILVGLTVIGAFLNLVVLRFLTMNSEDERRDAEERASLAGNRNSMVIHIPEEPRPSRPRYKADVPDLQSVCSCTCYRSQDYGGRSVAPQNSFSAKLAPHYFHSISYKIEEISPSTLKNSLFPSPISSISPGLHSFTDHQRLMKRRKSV

T1 sequence (Q79MP6 whole entry): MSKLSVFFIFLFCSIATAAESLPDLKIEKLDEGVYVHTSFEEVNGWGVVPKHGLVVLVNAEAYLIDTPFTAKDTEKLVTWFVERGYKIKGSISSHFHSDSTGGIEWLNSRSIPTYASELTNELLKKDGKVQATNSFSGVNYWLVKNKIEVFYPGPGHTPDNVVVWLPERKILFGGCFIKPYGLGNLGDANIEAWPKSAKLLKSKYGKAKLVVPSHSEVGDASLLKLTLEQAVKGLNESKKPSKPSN
Beta-lactamase (Salmonella choleraesuis (strain SC-B67), UniProt Q5J463), sequence (Q5J463 whole entry): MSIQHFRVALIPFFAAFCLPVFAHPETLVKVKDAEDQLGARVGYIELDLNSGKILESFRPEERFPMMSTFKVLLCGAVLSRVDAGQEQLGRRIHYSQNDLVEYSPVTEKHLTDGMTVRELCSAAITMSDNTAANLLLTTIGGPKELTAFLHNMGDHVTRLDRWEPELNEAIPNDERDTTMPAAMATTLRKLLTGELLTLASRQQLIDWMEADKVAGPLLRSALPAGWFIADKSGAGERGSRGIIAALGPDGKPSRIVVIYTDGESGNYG
Glucose-6-phosphate 1-dehydrogenase, sequence (P11413 whole entry): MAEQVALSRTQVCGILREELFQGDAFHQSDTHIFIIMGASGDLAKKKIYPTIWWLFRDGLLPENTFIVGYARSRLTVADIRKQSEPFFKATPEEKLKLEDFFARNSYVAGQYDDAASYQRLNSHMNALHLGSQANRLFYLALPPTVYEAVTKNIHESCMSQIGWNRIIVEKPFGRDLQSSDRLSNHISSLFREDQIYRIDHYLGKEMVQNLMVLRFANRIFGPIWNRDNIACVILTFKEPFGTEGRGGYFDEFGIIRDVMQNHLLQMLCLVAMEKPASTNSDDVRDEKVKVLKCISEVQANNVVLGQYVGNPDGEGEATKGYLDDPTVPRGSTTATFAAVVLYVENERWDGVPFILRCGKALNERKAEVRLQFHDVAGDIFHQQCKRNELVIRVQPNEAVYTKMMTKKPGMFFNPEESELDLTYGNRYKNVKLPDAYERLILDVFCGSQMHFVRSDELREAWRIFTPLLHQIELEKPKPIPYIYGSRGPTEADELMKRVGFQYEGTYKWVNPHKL
SWI/SNF-related matrix-associated actin-dependent regulator of chromatin subfamily A member 2, sequence (P51531 whole entry): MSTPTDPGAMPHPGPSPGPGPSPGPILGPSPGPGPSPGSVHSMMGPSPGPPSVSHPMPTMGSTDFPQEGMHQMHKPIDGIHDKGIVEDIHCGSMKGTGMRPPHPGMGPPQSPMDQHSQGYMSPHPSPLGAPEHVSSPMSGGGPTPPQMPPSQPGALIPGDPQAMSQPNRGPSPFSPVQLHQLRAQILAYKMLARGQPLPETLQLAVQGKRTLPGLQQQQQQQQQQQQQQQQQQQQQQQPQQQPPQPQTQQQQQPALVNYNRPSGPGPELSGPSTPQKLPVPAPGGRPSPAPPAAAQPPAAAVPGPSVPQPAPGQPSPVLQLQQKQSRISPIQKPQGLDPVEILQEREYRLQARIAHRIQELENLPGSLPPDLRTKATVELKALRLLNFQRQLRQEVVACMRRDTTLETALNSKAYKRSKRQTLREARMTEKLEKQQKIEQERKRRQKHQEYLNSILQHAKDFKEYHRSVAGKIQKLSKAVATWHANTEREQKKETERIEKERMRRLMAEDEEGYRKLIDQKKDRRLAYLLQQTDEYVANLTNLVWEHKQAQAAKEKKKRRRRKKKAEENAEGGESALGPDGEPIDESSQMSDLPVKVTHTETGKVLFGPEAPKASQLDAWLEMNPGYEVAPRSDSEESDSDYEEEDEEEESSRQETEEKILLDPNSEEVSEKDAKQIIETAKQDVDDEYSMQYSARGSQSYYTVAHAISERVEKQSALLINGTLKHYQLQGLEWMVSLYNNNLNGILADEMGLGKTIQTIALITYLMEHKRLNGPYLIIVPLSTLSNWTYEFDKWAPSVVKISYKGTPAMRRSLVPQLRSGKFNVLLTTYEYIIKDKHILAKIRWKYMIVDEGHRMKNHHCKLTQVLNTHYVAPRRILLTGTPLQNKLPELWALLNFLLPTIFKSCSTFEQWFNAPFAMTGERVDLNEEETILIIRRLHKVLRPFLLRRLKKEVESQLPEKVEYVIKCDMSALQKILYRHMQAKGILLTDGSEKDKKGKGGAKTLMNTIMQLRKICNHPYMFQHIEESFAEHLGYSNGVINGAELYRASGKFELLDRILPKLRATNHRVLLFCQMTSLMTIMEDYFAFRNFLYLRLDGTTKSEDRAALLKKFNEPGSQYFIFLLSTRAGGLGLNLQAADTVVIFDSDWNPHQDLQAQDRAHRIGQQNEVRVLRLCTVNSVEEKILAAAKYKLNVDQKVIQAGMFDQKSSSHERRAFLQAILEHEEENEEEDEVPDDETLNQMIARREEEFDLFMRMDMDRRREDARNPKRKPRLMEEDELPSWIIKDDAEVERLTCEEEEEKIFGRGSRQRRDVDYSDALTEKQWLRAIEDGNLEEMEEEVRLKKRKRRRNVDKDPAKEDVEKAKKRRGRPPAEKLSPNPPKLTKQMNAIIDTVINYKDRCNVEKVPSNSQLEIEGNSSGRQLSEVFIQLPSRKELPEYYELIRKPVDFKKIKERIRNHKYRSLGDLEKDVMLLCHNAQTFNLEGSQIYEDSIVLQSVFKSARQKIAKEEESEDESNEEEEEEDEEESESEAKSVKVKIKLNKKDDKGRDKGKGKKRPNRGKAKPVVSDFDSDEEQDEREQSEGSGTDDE
Dual specificity protein phosphatase 3, sequence (P51452 whole entry): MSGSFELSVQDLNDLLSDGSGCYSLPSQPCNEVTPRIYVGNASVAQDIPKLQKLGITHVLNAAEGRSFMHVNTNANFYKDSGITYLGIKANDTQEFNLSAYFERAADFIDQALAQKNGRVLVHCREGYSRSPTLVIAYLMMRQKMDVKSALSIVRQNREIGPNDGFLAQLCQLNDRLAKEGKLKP
Tyrosine-protein phosphatase non-receptor type 11, sequence (Q06124 whole entry): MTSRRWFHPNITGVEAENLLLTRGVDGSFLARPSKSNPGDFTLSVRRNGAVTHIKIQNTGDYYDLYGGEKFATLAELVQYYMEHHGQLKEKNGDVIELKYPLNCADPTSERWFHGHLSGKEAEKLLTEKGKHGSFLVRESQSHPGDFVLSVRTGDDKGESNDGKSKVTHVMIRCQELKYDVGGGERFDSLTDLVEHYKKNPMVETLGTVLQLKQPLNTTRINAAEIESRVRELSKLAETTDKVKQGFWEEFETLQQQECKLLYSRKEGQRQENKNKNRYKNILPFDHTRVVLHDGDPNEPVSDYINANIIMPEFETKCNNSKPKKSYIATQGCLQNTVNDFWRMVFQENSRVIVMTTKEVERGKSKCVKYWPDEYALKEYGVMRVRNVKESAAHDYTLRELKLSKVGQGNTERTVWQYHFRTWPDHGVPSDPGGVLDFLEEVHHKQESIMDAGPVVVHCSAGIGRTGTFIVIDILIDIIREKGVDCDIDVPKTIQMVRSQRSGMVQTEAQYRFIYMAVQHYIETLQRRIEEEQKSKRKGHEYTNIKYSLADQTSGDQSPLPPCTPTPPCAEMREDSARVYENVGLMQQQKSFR
Paired box protein Pax-8, sequence (Q06710 whole entry): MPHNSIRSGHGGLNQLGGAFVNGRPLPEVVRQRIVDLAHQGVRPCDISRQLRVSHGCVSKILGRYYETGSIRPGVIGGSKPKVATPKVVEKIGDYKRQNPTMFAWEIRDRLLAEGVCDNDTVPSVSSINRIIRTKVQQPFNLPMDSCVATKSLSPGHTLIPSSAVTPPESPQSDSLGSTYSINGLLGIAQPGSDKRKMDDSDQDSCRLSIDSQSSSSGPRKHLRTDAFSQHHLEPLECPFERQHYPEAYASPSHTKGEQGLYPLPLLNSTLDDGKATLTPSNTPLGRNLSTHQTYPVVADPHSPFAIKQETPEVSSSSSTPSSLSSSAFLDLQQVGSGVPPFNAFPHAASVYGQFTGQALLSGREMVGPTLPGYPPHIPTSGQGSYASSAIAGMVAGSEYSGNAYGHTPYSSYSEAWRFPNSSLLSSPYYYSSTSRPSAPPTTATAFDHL
Fructose-bisphosphate aldolase, sequence (P9WQA3 whole entry): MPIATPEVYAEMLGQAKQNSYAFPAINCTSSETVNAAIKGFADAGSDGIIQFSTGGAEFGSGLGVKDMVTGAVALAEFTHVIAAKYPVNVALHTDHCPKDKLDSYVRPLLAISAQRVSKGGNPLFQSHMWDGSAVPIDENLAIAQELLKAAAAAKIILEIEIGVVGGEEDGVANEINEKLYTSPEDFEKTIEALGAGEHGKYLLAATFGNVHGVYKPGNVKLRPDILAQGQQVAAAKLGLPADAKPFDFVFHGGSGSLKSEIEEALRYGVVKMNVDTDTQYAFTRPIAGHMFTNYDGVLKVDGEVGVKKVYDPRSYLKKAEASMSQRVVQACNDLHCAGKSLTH

O=C(CSc1nnc(NC(=O)C2CC2)s1)NCc1ccccc1Cl
IC50 (Beta-lactamase [1]): > 59.6 µM (inactive)
IC50 (Beta-lactamase [2]): > 59.6 µM (inactive)
IC50 (Beta-lactamase [3]): > 59.6 µM (inactive)

CC(=O)NN1C(=O)c2ccccc2NC1c1ccccn1 (stereo not given)
IC50 [4]: 3.49 µM (active)

Cc1cc(NS(=O)(=O)c2ccc(NC(=O)C(CC(C)C)N3C(=O)c4ccccc4C3=O)cc2)nc(C)n1 (stereo not given)
IC50 (Aminopeptidase N): 38 µM (active)
AC50 [5]: 49.8 µM (active)
AC50 [6]: 8.51 µM (active)

SC1=NC2=C(CCCC2=C2SCCS2)C(c2ccccc2)N1 (stereo not given)
IC50 [7]: 5.27 µM (active)
IC50 [8]: 22.6 µM (inactive)
IC50 [9]: 1.23 µM (active)
IC50 [10]: > 100 µM (inactive)

CCCCC[C@H]1CN(CCc2ccccc2)C(=O)[C@@H]1CC(=O)NCc1ccc(OC)cc1
AC50 (Vero): 33.9 µM (active)

CC(C)CN(C(=O)COC(=O)C12CC3CC(CC(C3)C1)C2)c1c(N)n(Cc2ccccc2)c(=O)[nH]c1=O
IC50 [11]: > 80 µM (inactive)
AC50 (INS1): 3.62 µM (active)
AC50 [12]: 9.69 µM (active)
AC50 [13]: 13.1 µM (active)
AC50 [14]: 11.4 µM (active)
AC50 [15]: 17 µM (active)
AC50 [16]: 18.3 µM (active)
AC50 [17]: 8.64 µM (active)
AC50 [18]: 13.7 µM (active)
AC50 [19]: 43.8 µM (active)
AC50 [20]: 30.2 µM (active)
AC50 [21]: 16.6 µM (active)

O=[N+]([O-])c1cnc(Sc2ccncn2)c([N+](=O)[O-])c1
IC50 [22]: > 80 µM (inactive)
CC50 [23]: 34.1 µM (active)

CC1(C(=O)NCc2cccs2)Cc2c(-c3cccc(C(F)(F)F)c3)ccnc2O1 (stereo not given)
AC50 (A549): 17.6 µM (active)

CN(C)c1ncnc2c1nnn2C1OC(CO)C(O)C1O (stereo not given)
EC50 [24]: > 91.2 µM (inactive)
EC50 [25]: > 91.2 µM (inactive)
AC50 (Paired box protein Pax-8): < 0.26 µM (active)

CC(C)NC(=O)N1[C@H](CO)[C@H](c2ccc(C#CC3CCCCC3)cc2)[C@@H]1C#N
AbsAC35 [26]: 202.7 µM
AbsAC35 [27]: 62.28 µM
AbsAC35 [28]: 53.56 µM

C[C@@H]1CN([C@@H](C)CO)C(=O)c2c(c3ccccc3n2C)-c2ccccc2CO[C@H]1CN(C)C(=O)Nc1ccc(F)cc1
AbsAC35 [29]: 204.77 µM

Cc1cccc(C(=O)Nc2cccc(NC(=O)c3ccccc3Cl)c2)c1
IC50 [30]: 19.8 µM (active)

Source: ChEMBL document CHEMBL1201862, “PubChem BioAssay data set” (2004)
